Patent US8486996B2, “Aroylfuranes and aroylthiophenes” (Basilea Pharmaceutica AG, priority 2006, dated 2013)
Read-outs that look alike come from different tables or passages of the source.

Assays:
[1] = Hoechst 33342 nuclear staining (48 h read-out); format: cell-based
Outline: (§1)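 Adherent cells pre-spread 24 h before dosing, suspension cells dosed at seeding; compounds at 0.001 μM-10 μM final, 48 h at culture conditions. Hoechst 33342 (2-5 μg/ml) added for 30 min, then fluorescence microscopy scoring of apoptotic nuclear fraction and apoptosis-specific morphology, reported as scores A-D.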

tumor cells [2] = assay: Hoechst 33342 nuclear staining (48 h read-out); format: cell-based
Outline: as §1

[3] = MTS proliferation assay (72 h read-out); format: cell-based; conditions: MRC5 cells
Outline: (§2)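 Tumour cells (1.5×10^3–10^4 per well) were seeded 24 h before compound addition, then exposed to 0.001–10 μM final compound for 72 h under culture conditions. MTS reagent was added for a further 3 h, absorbance was read at 492 nm, and results were binned into scores A–D.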

tumor cells [4] = assay: MTS proliferation assay (72 h read-out); format: cell-based
Outline: as §2

[5] = Mitochondrial membrane potential, JC-1 (read-out 48 h); format: cell-based; conditions: PBL, JC-1, 48 h
Outline: (§3)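 Tumor cells were treated with test compounds (adherent cells after 24 h of attachment, suspension cells immediately), medium holding up to 5% DMSO. After 48 h, JC-1 (2-5 μg/ml in added medium) was applied for 30 min. Fluorescence microscopy (FITC/TRITC filters) scored the fraction of cells with dissipated mitochondrial membrane potential as categories A-D.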

tumor cells [6] = assay: as above; format: cell-based; conditions: JC-1, 48 h
Outline: as §3

HeLa = assay: Colony Forming Units (read-out 6 days), HeLa; format: cell-based, human; conditions: colonies containing more than 30 cells, read-out: Colony Forming Units, score based on IC50, HeLa
Procedure: (§4) Appropriate numbers of cells (100-150 cells, dependent on the cell type) are being seeded out in 1 ml complete medium into 6-well plates and allowed to attach for 48 h. The compounds are added after 48 h in 500 μl solution. The concentrations are in the range of 0.001 μM-3 μM. Control plates receive the same volume of medium containing the appropriate amount of DMSO. The plates are incubated for 5-7 days at cell culture conditions and subsequently scored for growth of colonies (containing more than 30 cells) by using a microscope.

H460 = assay: Colony Forming Units (read-out 6 days), H460; format: cell-based, human; conditions: colonies containing more than 30 cells, read-out: Colony Forming Units, score based on IC50, H460
Procedure: as §4

[7] = Homo sapiens, MRC5 cells, read-out: Hoechst 33342 nuclear staining EC50, MRC5
[8] = PBL, read-out: Hoechst 33342 nuclear staining EC50, PBL
[9] = Homo sapiens, HeLa cells, read-out: Hoechst 33342 nuclear staining EC50, HeLa
[10] = Homo sapiens, Jurkat cells, read-out: Hoechst 33342 nuclear staining EC50, Jurkat
[11] = Jily cells, read-out: Hoechst 33342 nuclear staining EC50, Jily
[12] = Homo sapiens, HT-1080, HT1080 cells, read-out: MTS proliferation assay IC50, HT1080
[13] = Homo sapiens, HeLa cells, read-out: MTS proliferation assay IC50, HeLa
[14] = Homo sapiens, Jurkat cells, read-out: MTS proliferation assay IC50, Jurkat
[15] = Jily cells, read-out: MTS proliferation assay IC50, Jily
[16] = Homo sapiens, HeLa cells, read-out: Mitochondrial membrane potential (read-out 48 h) HeLa
[17] = Homo sapiens, Jurkat cells, read-out: Mitochondrial membrane potential (read-out 48 h) Jurkat
[18] = Homo sapiens, MCF7 cells, read-out: Mitochondrial membrane potential (read-out 48 h) MCF7
[19] = Jily cells, read-out: Mitochondrial membrane potential (read-out 48 h) Jily
[20] = MRC5 cells, read-out: Hoechst 33342 nuclear staining EC50, MRC5
[21] = HeLa cells, read-out: Hoechst 33342 nuclear staining EC50, HeLa
[22] = Jurkat cells, read-out: Hoechst 33342 nuclear staining EC50, Jurkat
[23] = HT1080 cells, read-out: MTS proliferation assay IC50, HT1080
[24] = HeLa cells, read-out: MTS proliferation assay IC50, HeLa
[25] = HeLa cells, read-out: Mitochondrial membrane potential (read-out 48 h) HeLa
[26] = Jurkat cells, read-out: Mitochondrial membrane potential (read-out 48 h) Jurkat
[27] = MCF7 cells, read-out: Mitochondrial membrane potential (read-out 48 h) MCF7

EC50 [1, 8] [nM]	EC50 (tumor cells [2]; [9]) [nM]	EC50 (tumor cells [2]; [10]) [nM]	EC50 (tumor cells [2]; [11]) [nM]	IC50 (tumor cells [4]; [12]) [nM]	IC50 (tumor cells [4]; [13]) [nM]	IC50 (tumor cells [4]; [14]) [nM]	IC50 (tumor cells [4]; [15]) [nM]	EC50 [5] [nM]	EC50 (tumor cells [6]; [16]) [nM]	EC50 (tumor cells [6]; [17]) [nM]	EC50 (tumor cells [6]; [18]) [nM]	EC50 (tumor cells [6]; [19]) [nM]	melting point [°C]	SMILES	EC50 [1, 7] [nM]	IC50 ([3]; Homo sapiens) [nM]	also measured
> 1000	100 to 1000	100 to 1000	100 to 1000	100 to 1000	100 to 1000	100 to 1000	100 to 1000	> 1000	100 to 1000	100 to 1000	> 1000	100 to 1000	168	CCOc1ccccc1C(=O)c1oc2cnc(C)cc2c1N [Example 30]	> 1000	> 1000	–
> 1000	> 1000	> 1000	> 1000	> 1000	> 1000	> 1000	> 1000	> 1000	> 1000	> 1000	> 1000	> 1000	138 to 142	CCOc1ccccc1C(=O)c1sc2ncccc2c1N [Example 114]	> 1000	> 1000	–
> 1000	> 1000	> 1000	> 1000	> 1000	> 1000	> 1000	> 1000	> 1000	> 1000	> 1000	> 1000	> 1000	205	CCOc1ccc(F)cc1C(=O)c1sc2ncc([N+](=O)[O-])cc2c1N [Example 115]	> 1000	> 1000	–
> 1000	100 to 1000	10 to 100	10 to 100	100 to 1000	100 to 1000	10 to 100	10 to 100	> 1000	100 to 1000	10 to 100	100 to 1000	–	144 to 146	CCOc1ccc(C)cc1C(=O)COc1ccc(Cl)cc1C#N [Example 144]	100 to 1000	100 to 1000	–
> 1000	100 to 1000	10 to 100	100 to 1000	–	–	–	–	> 1000	100 to 1000	10 to 100	100 to 1000	–	138 to 140	CCOc1ccc(Cl)cc1C(=O)COc1nc(C)ccc1C#N [Example 146]	100 to 1000	–	–
> 1000	> 1000	> 1000	> 1000	> 1000	> 1000	> 1000	> 1000	> 1000	> 1000	> 1000	> 1000	> 1000	116	CCOc1ccccc1C(=O)c1sc2ncc(N)cc2c1N [Example 117]	> 1000	> 1000	–
> 1000	> 1000	100 to 1000	100 to 1000	–	–	–	–	> 1000	> 1000	100 to 1000	100 to 1000	–	156 to 158	CCOc1ccccc1C(=O)COc1nc(C)ccc1C#N [Example 145]	> 1000	–	–
> 1000	–	–	10 to 100	–	–	–	< 10	> 1000	–	–	–	10 to 100	–	CCOc1ccccc1C(=O)c1cc2cc(OC)ccc2o1 [Example 53]	–	–	EC50 [1, 20]: 100 to 1000 nM; EC50 (tumor cells [2]; [21]): 10 to 100 nM; EC50 (tumor cells [2]; [22]): < 10 nM; IC50 [3]: < 10 nM; IC50 (tumor cells [4]; [23]): < 10 nM; IC50 (tumor cells [4]; [24]): < 10 nM; EC50 (tumor cells [6]; [25]): 10 to 100 nM; EC50 (tumor cells [6]; [26]): 10 to 100 nM; EC50 (tumor cells [6]; [27]): 10 to 100 nM; IC50 (HeLa): 10 to 100 nM; IC50 (H460): 10 to 100 nM
> 1000	–	–	100 to 1000	–	–	–	10 to 100	> 1000	–	–	–	100 to 1000	–	CCN(C)c1ncccc1C(=O)c1oc2ccc(Cl)cc2c1N [Example 80]	–	–	EC50 [1, 20]: > 1000 nM; EC50 (tumor cells [2]; [21]): 100 to 1000 nM; EC50 (tumor cells [2]; [22]): 100 to 1000 nM; IC50 [3]: 100 to 1000 nM; IC50 (tumor cells [4]; [23]): 100 to 1000 nM; IC50 (tumor cells [4]; [24]): 100 to 1000 nM; IC50 (tumor cells [4]; Jurkat cells, read-out: MTS proliferation assay IC50, Jurkat): 10 to 100 nM; EC50 (tumor cells [6]; [25]): 100 to 1000 nM; EC50 (tumor cells [6]; [26]): 10 to 100 nM; EC50 (tumor cells [6]; [27]): > 1000 nM; IC50 (HeLa): 100 to 1000 nM; IC50 (H460): 100 to 1000 nM

The remaining lines, values behind:

SMILES	EC50 [1, 8] [nM]	EC50 (tumor cells [2]; [9]) [nM]	EC50 (tumor cells [2]; [10]) [nM]	EC50 (tumor cells [2]; [11]) [nM]	IC50 (tumor cells [4]; [12]) [nM]	IC50 (tumor cells [4]; [13]) [nM]	IC50 (tumor cells [4]; [14]) [nM]	IC50 (tumor cells [4]; [15]) [nM]	EC50 [5] [nM]	EC50 (tumor cells [6]; [16]) [nM]	EC50 (tumor cells [6]; [17]) [nM]	EC50 (tumor cells [6]; [18]) [nM]	EC50 (tumor cells [6]; [19]) [nM]	melting point [°C]	EC50 [1, 7] [nM]	IC50 ([3]; Homo sapiens) [nM]	also measured
CCOc1ccc(Cl)cc1C(=O)c1oc2ccc(Cl)cc2c1N [Example 17]	> 1000	10 to 100	10 to 100	10 to 100	< 10	10 to 100	< 10	< 10	> 1000	10 to 100	10 to 100	10 to 100	10 to 100	140 to 142	10 to 100	< 10	–
CCOc1ccc(NC(C)=O)cc1C(=O)c1oc2ccc(Cl)cc2c1N [Example 21]	> 1000	> 1000	> 1000	> 1000	> 1000	> 1000	> 1000	> 1000	> 1000	> 1000	> 1000	> 1000	> 1000	110 to 112	> 1000	> 1000	–
CCOc1c(C)cccc1C(=O)c1oc2ccc(Cl)cc2c1N [Example 25]	> 1000	> 1000	100 to 1000	100 to 1000	> 1000	> 1000	100 to 1000	100 to 1000	> 1000	> 1000	100 to 1000	> 1000	100 to 1000	54	> 1000	> 1000	–
CCOc1ccc(C(=O)OC)cc1C(=O)c1oc2ccc(Cl)cc2c1N [Example 20]	> 1000	100 to 1000	10 to 100	10 to 100	10 to 100	100 to 1000	10 to 100	10 to 100	> 1000	100 to 1000	10 to 100	100 to 1000	10 to 100	136 to 138	> 1000	–	–
CCOc1c(OC)cccc1C(=O)c1oc2ccc(Cl)cc2c1N [Example 24]	> 1000	> 1000	> 1000	> 1000	> 1000	> 1000	> 1000	> 1000	> 1000	> 1000	> 1000	> 1000	> 1000	121 to 124	> 1000	> 1000	–
CCOc1ccccc1C(=O)c1oc2nc(C)ccc2c1N [Example 28]	> 1000	100 to 1000	10 to 100	10 to 100	100 to 1000	100 to 1000	10 to 100	10 to 100	> 1000	100 to 1000	10 to 100	> 1000	100 to 1000	156 to 158	> 1000	100 to 1000	–
CCOc1cc(OC)c(Br)cc1C(=O)c1oc2ccc(Cl)cc2c1N [Example 23]	> 1000	> 1000	100 to 1000	100 to 1000	> 1000	> 1000	100 to 1000	100 to 1000	> 1000	> 1000	100 to 1000	> 1000	> 1000	132 to 133	> 1000	> 1000	–
